In ChEMBL document CHEMBL1833947, “Synthesis and biological investigation of potential atypical antipsychotics with a tropane core. Part 1” (Eur J Med Chem, 2011):
The source made the active and inactive calls. The rule behind the calls is not given here.

Columns and labels:
Mus musculus [1] = assay: Antidepressant-like activity in Swiss albino mouse assessed as immobilization time at 2 mg/kg, sc after 30 mins by forced swim test; type: functional; details: route subcutaneous
Mus musculus [2] = assay: Antidepressant-like activity in Swiss albino mouse assessed as immobilization time at 1 mg/kg, sc after 30 mins by forced swim test; type: functional; details: route subcutaneous
Rattus norvegicus [3] = assay: Induction of 5HT1A receptor in rat assesses as lower lip retractions at 0.1 mg/kg, iv after 15 mins (reference value: 0.1 +/- 0.1 retractions); type: functional
Rattus norvegicus [4] = assay: Antipsychotic activity in 8-OH-DPAT-stimulated rat assessed as lower lip retractions at 0.1 mg/kg, iv administered 45 mins before 8-OH-DPAT challenge measured after 15 to 45 mins (reference value: 2.9 retractions); type: functional
Mus musculus [5] = species: Mus musculus; details: Swiss albino, 20 mg/kg
Description: Hypothermic effect in Swiss albino mouse assessed as change in body temperature at 20 mg/kg, ip measured after 60 mins in presence of 0.1 mg/kg, sc 5-HT1A antagonist WAY 100635

[6] = molecular target: 5-hydroxytryptamine receptor 2A (Rattus norvegicus, UniProt P14842); assay: Displacement of [3H]ketanserin from 5HT2A in rat brain cerebral cortex after 20 mins by scintillation counting; type: tissue-based
5-hydroxytryptamine receptor 2A, sequence (P14842 whole entry): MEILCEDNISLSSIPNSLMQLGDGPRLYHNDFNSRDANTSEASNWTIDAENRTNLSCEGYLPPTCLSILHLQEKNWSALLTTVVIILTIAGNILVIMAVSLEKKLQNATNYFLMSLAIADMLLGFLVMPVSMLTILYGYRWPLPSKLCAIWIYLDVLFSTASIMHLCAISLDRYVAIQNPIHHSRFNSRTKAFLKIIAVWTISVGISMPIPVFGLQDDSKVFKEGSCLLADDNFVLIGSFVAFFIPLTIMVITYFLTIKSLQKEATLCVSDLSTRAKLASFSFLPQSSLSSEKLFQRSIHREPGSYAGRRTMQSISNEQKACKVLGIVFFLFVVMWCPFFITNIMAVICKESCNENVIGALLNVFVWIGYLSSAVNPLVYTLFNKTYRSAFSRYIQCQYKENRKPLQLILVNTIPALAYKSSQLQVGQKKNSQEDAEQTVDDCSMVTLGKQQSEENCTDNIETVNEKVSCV

Mus musculus [7] = species: Mus musculus; details: Swiss albino, 10 mg/kg
Description: Hypothermic effect in Swiss albino mouse assessed as change in body temperature at 10 mg/kg, ip measured after 30 mins

Mus musculus [8] = species: Mus musculus; details: Swiss albino, 5 mg/kg
Description: Hypothermic effect in Swiss albino mouse assessed as change in body temperature at 5 mg/kg, ip measured after 30 mins

Mus musculus [9] = assay: Antipsychotic activity in mouse assessed as reversal of DOI-induced head twitches at 5 mg/kg, ip administered 30 mins before DOI challenge; type: functional; details: route intraperitoneal
Mus musculus [10] = assay: Antipsychotic activity in mouse assessed as reversal of apomorphine-induced mesh climbing response at 10 mg/kg, ip administered 10 mins prior to apomorphine challenge measured after 40 mins; type: functional, organism-based; parameters: dose 10 mg/kg
Mus musculus [11] = assay: Antipsychotic activity in mouse assessed as reversal of apomorphine-induced mesh climbing response at 10 mg/kg, ip administered 10 mins prior to apomorphine challenge measured after 60 mins; type: functional, organism-based; parameters: dose 10 mg/kg
Rattus norvegicus [12] = assay: Antipsychotic activity in 8-OH-DPAT-stimulated rat assessed as lower lip retractions at 20 mg/kg, iv administered 45 mins before 8-OH-DPAT challenge measured after 15 to 45 mins (reference value: 2.9 retractions); type: functional
Mus musculus [13] = species: Mus musculus; details: Swiss albino, 10 mg/kg; remark: listed apart in the source
Description: Hypothermic effect in Swiss albino mouse assessed as change in body temperature at 10 mg/kg, ip measured after 90 mins

D(2) dopamine receptor = D(2) dopamine receptor (Rattus norvegicus, UniProt P61169); assay: Displacement of [3H]spiperone from dopamine D2 receptor in rat striatum tissue after 20 mins by scintillation counting; type: tissue-based
D(2) dopamine receptor, sequence (P61169 whole entry): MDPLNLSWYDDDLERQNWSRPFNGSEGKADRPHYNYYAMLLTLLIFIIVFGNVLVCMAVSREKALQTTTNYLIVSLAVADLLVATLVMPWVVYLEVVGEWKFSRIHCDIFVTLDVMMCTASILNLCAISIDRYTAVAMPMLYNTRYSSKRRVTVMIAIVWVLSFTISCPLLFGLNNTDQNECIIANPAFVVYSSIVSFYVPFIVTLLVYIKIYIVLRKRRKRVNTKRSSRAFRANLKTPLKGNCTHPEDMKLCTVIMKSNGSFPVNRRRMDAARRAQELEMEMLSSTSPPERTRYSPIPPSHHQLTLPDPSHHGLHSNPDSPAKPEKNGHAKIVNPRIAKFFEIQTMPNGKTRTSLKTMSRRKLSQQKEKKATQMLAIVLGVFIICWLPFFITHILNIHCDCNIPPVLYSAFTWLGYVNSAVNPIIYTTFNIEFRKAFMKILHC

Rattus norvegicus [14] = assay: Antipsychotic activity in 8-OH-DPAT-stimulated rat assessed as lower lip retractions at 10 mg/kg, iv administered 45 mins before 8-OH-DPAT challenge measured after 15 to 45 mins (reference value: 2.9 retractions); type: functional
Mus musculus [15] = species: Mus musculus; details: Swiss albino, 20 mg/kg; remark: listed apart in the source
Description: Hypothermic effect in Swiss albino mouse assessed as change in body temperature at 20 mg/kg, ip measured after 60 mins

Mus musculus [16] = species: Mus musculus; details: Swiss albino, 10 mg/kg; remark: listed apart in the source
Description: Hypothermic effect in Swiss albino mouse assessed as change in body temperature at 10 mg/kg, ip measured after 120 mins

Mus musculus [17] = assay: Antidepressant-like activity in Swiss albino mouse assessed as immobilization time at 20 mg/kg, ip after 30 mins by forced swim test; type: functional, organism-based; parameters: dose 20 mg/kg
Mus musculus [18] = assay: Antipsychotic activity in mouse assessed as reversal of apomorphine-induced mesh climbing response at 50 mg/kg, ip administered 20 mins prior to apomorphine challenge measured after 120 mins
Mus musculus [19] = assay: Antipsychotic activity in mouse assessed as reversal of DOI-induced head twitches at 20 mg/kg, ip administered 30 mins before DOI challenge; type: functional; details: route intraperitoneal
Mus musculus [20] = species: Mus musculus; details: Swiss albino, 20 mg/kg; remark: listed apart in the source
Description: Hypothermic effect in Swiss albino mouse assessed as change in body temperature at 20 mg/kg, ip measured after 30 mins

Mus musculus [21] = species: Mus musculus; details: Swiss albino, 20 mg/kg; remark: listed apart in the source
Description: Hypothermic effect in Swiss albino mouse assessed as change in body temperature at 20 mg/kg, ip measured after 120 mins

Rattus norvegicus [22] = assay: Induction of 5HT1A receptor in rat assesses as lower lip retractions at 10 mg/kg, iv after 15 mins (reference value: 0.1 +/- 0.1 retractions); type: functional
[23] = molecular target: T1, 5-hydroxytryptamine receptor 1A (Rattus norvegicus, UniProt P19327); assay: Displacement of [3H]8OH-DPAT from 5HT1A in rat brain cerebral cortex after 15 mins by scintillation counting; type: tissue-based
T1 sequence (P19327 whole entry): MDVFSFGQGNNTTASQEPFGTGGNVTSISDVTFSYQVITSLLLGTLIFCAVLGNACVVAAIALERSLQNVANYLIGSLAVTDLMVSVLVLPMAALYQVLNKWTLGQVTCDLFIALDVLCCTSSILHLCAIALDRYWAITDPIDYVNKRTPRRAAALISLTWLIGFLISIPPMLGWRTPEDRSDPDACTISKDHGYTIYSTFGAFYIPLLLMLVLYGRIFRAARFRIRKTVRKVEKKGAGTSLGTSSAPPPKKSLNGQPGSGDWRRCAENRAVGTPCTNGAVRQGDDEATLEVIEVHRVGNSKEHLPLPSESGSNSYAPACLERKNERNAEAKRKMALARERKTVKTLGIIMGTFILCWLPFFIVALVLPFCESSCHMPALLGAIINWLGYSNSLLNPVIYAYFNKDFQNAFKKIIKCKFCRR

Mus musculus [24] = species: Mus musculus; details: Swiss albino, 20 mg/kg; remark: listed apart in the source
Description: Hypothermic effect in Swiss albino mouse assessed as change in body temperature at 20 mg/kg, ip measured after 30 mins in presence of 0.1 mg/kg, sc 5-HT1A antagonist WAY 100635

Mus musculus [25] = species: Mus musculus; details: Swiss albino, 10 mg/kg; remark: listed apart in the source
Description: Hypothermic effect in Swiss albino mouse assessed as change in body temperature at 10 mg/kg, ip measured after 60 mins

Mus musculus [26] = species: Mus musculus; details: Swiss albino, 5 mg/kg; remark: listed apart in the source
Description: Hypothermic effect in Swiss albino mouse assessed as change in body temperature at 5 mg/kg, ip measured after 120 mins

Mus musculus [27] = assay: Antipsychotic activity in mouse assessed as reversal of DOI-induced head twitches at 10 mg/kg, ip administered 30 mins before DOI challenge; type: functional; details: route intraperitoneal
Mus musculus [28] = assay: Antipsychotic activity in mouse assessed as reversal of apomorphine-induced mesh climbing response at 10 mg/kg, ip administered 10 mins prior to apomorphine challenge measured after 50 mins; type: functional, organism-based; parameters: dose 10 mg/kg
Rattus norvegicus [29] = assay: Induction of 5HT1A receptor in rat assesses as lower lip retractions at 20 mg/kg, iv after 15 mins (reference value: 0.1 +/- 0.1 retractions); type: functional
Mus musculus [30] = assay: Antidepressant-like activity in Swiss albino mouse assessed as immobilization time at 10 mg/kg, ip after 30 mins by forced swim test; type: functional
Mus musculus [31] = species: Mus musculus; details: Swiss albino, 5 mg/kg; remark: listed apart in the source
Description: Hypothermic effect in Swiss albino mouse assessed as change in body temperature at 5 mg/kg, ip measured after 60 mins

Mus musculus [32] = species: Mus musculus; details: Swiss albino, 5 mg/kg; remark: listed apart in the source
Description: Hypothermic effect in Swiss albino mouse assessed as change in body temperature at 5 mg/kg, ip measured after 90 mins

Mus musculus [33] = species: Mus musculus; details: Swiss albino, 20 mg/kg; remark: listed apart in the source
Description: Hypothermic effect in Swiss albino mouse assessed as change in body temperature at 20 mg/kg, ip measured after 90 mins

Mus musculus [34] = assay: Anxiolytic-like activity in mouse assessed as number of punished crossing at 10 mg/kg, ip after 30 mins by four-plate test (reference value: 554 +/- 46 crossings); type: functional; details: route intraperitoneal
Mus musculus [35] = assay: Anxiolytic-like activity in mouse assessed as number of punished crossing at 10 mg/kg, ip after 6 mins by four-plate test (reference value: 554 +/- 46 crossings); type: functional; details: route intraperitoneal
Mus musculus [36] = assay: Antipsychotic activity in mouse assessed as reversal of apomorphine-induced mesh climbing response at 50 mg/kg, ip administered 10 mins prior to apomorphine challenge measured after 30 mins; type: functional, organism-based; parameters: dose 50 mg/kg
Mus musculus [37] = species: Mus musculus; details: Swiss albino, 20 mg/kg; remark: listed apart in the source
Description: Hypothermic effect in Swiss albino mouse assessed as change in body temperature at 20 mg/kg, ip measured after 60 mins in presence of 5 mg/kg, sc 8-OH-DPAT

Mus musculus [38] = species: Mus musculus; details: Swiss albino, 20 mg/kg; remark: listed apart in the source
Description: Hypothermic effect in Swiss albino mouse assessed as change in body temperature at 20 mg/kg, ip measured after 45 mins in presence of 5 mg/kg, sc 8-OH-DPAT

Mus musculus [39] = assay: Antipsychotic activity in mouse assessed as reversal of apomorphine-induced mesh climbing response at 50 mg/kg, ip administered 20 mins prior to apomorphine challenge measured after 40 mins
Mus musculus [40] = species: Mus musculus; details: Swiss albino, 20 mg/kg; remark: listed apart in the source
Description: Hypothermic effect in Swiss albino mouse assessed as change in body temperature at 20 mg/kg, ip measured after 30 mins in presence of 5 mg/kg, sc 8-OH-DPAT

Mus musculus [41] = species: Mus musculus; details: Swiss albino, 20 mg/kg; remark: listed apart in the source
Description: Hypothermic effect in Swiss albino mouse assessed as change in body temperature at 20 mg/kg, ip measured after 15 mins in presence of 5 mg/kg, sc 8-OH-DPAT

Mus musculus [42] = species: Mus musculus; details: Swiss albino, 5 mg/kg; remark: listed apart in the source
Description: Hypothermic effect in Swiss albino mouse assessed as change in body temperature at 5 mg/kg, ip measured after 60 mins in presence of 0.1 mg/kg, sc 5-HT1A antagonist WAY 100635

Mus musculus [43] = species: Mus musculus; details: Swiss albino, 5 mg/kg; remark: listed apart in the source
Description: Hypothermic effect in Swiss albino mouse assessed as change in body temperature at 5 mg/kg, ip measured after 30 mins in presence of 0.1 mg/kg, sc 5-HT1A antagonist WAY 100635

Mus musculus [44] = assay: Anxiolytic-like activity in mouse assessed as number of punished crossing at 5 mg/kg, ip after 30 mins by four-plate test (reference value: 1514 +/- 73 crossings); type: functional; details: route intraperitoneal
Mus musculus [45] = assay: Anxiolytic-like activity in mouse assessed as number of punished crossing at 5 mg/kg, ip after 6 mins by four-plate test (reference value: 1514 +/- 73 crossings); type: functional; details: route intraperitoneal
Mus musculus [46] = species: Mus musculus; details: Swiss albino, 2.5 mg/kg
Description: Hypothermic effect in Swiss albino mouse assessed as change in body temperature at 2.5 mg/kg, ip measured after 120 mins

Mus musculus [47] = species: Mus musculus; details: Swiss albino, 2.5 mg/kg; remark: listed apart in the source
Description: Hypothermic effect in Swiss albino mouse assessed as change in body temperature at 2.5 mg/kg, ip measured after 30 mins

Mus musculus [48] = assay: Antidepressant-like activity in Swiss albino mouse assessed as immobilization time at 2.5 mg/kg, ip after 30 mins by forced swim test; type: functional, organism-based; parameters: dose 2.5 mg/kg
Mus musculus [49] = species: Mus musculus; details: Swiss albino, 2.5 mg/kg; remark: listed apart in the source
Description: Hypothermic effect in Swiss albino mouse assessed as change in body temperature at 2.5 mg/kg, ip measured after 60 mins

Rattus norvegicus [50] = assay: Induction of 5HT1A receptor in rat assesses as lower lip retractions at 5 mg/kg, iv after 15 mins (reference value: 0.1 +/- 0.1 retractions); type: functional
Rattus norvegicus [51] = assay: Antipsychotic activity in 8-OH-DPAT-stimulated rat assessed as lower lip retractions at 5 mg/kg, iv administered 45 mins before 8-OH-DPAT challenge measured after 15 to 45 mins (reference value: 2.9 retractions); type: functional
Mus musculus [52] = assay: Antidepressant-like activity in Swiss albino mouse assessed as immobilization time at 5 mg/kg, ip after 30 mins by forced swim test; type: functional, organism-based; parameters: dose 5 mg/kg
Mus musculus [53] = species: Mus musculus; details: Swiss albino, 2.5 mg/kg; remark: listed apart in the source
Description: Hypothermic effect in Swiss albino mouse assessed as change in body temperature at 2.5 mg/kg, ip measured after 90 mins

Row | Compound | deltaT (Mus musculus [5]) [°C] | Ki [6] [nM] | deltaT (Mus musculus [7]) [°C] | deltaT (Mus musculus [8]) [°C] | Activity (Mus musculus [9]) [%] | Activity (Rattus norvegicus [12]) | deltaT (Mus musculus [13]) [°C] | Ki (D(2) dopamine receptor) [nM] | Activity (Rattus norvegicus [14]) | deltaT (Mus musculus [15]) [°C] | Activity (Mus musculus [19]) [%] | deltaT (Mus musculus [20]) [°C] | deltaT (Mus musculus [21]) [°C] | Activity (Rattus norvegicus [22]) | Ki [23] [nM] | deltaT (Mus musculus [26]) [°C] | Activity (Rattus norvegicus [29]) | deltaT (Mus musculus [31]) [°C] | deltaT (Mus musculus [32]) [°C] | deltaT (Mus musculus [33]) [°C] | also measured
1 | Br.CCCN(CCC)C1CCc2cccc(O)c2C1 (stereo not drawn) | – | – | – | – | – | – | – | – | – | – | – | – | – | – | – | – | – | – | – | – | Activity (Mus musculus [1]): 57%; Activity (Mus musculus [2]): 45%
2 | COc1ccccc1N1CCN(CCN(C(=O)C2CCCCC2)c2ccccn2)CC1.Cl.Cl.Cl | – | – | – | – | – | – | – | – | – | – | – | – | – | – | – | – | – | – | – | – | Activity (Rattus norvegicus [3]): 0; Activity (Rattus norvegicus [4]): 0.3
3 | COc1cc(N)c(Cl)cc1C(=O)N[C@H]1CC2CC[C@H](C1)N2Cc1ccco1 (single isomer, unassigned) | -0.8 | 16.6 | -0.3 | 0 | 68 | 2.7 | -0.1 | 18.2 | 2.6 | -1 | 100 | -1.8 | -0.9 | 0.2 | 2500 | 0.1 | 0.1 | -0.3 | 0.1 | -1 | Activity (Mus musculus [10]): Active; Activity (Mus musculus [11]): Active; deltaT (Mus musculus [16]): -0.1 °C; Activity (Mus musculus [17]): inactive; Activity (Mus musculus [18]): Active; deltaT (Mus musculus [24]): -1.3 °C; deltaT (Mus musculus [25]): -0.2 °C; Activity (Mus musculus [27]): 97%; Activity (Mus musculus [28]): Active; Activity (Mus musculus [30]): inactive
4 | O=C(N[C@H]1CC2CC[C@H](C1)N2Cc1ccco1)c1ccc2ccccc2c1 (single isomer, unassigned) | -1.1 | 24.1 | – | -0.2 | – | 2 | – | 203 | 2.7 | -0.8 | – | -1.3 | -0.2 | 0.1 | 2800 | 0.1 | 0.6 | 0.1 | 0.1 | -0.4 | Activity (Mus musculus [34]): 566; Activity (Mus musculus [17]): inactive; deltaT (Mus musculus [24]): -1.2 °C; Activity (Mus musculus [30]; route intraperitoneal): 9%; Activity (Mus musculus [35]): 233
5 | COc1cc(N)c(Cl)cc1C(=O)N[C@@H]1CC2CC[C@H](C1)N2CC1CCCO1 (single isomer, unassigned) | – | 6.2 | -0.2 | -0.1 | 63 | 2.4 | -0.1 | 103 | 2.4 | -0.3 | 92 | -0.8 | -0.1 | 0.3 | 5700 | 0 | 0.5 | -0.1 | 0 | -0.1 | Activity (Mus musculus [36]): Active; deltaT (Mus musculus [37]): -0.6 °C; deltaT (Mus musculus [38]): -1.6 °C; deltaT (Mus musculus [16]): 0 °C; Activity (Mus musculus [39]): Active; deltaT (Mus musculus [25]): 0 °C; deltaT (Mus musculus [40]): -2.9 °C; deltaT (Mus musculus [41]): -2.9 °C
6 | O=C(N[C@@H]1CC2CC[C@H](C1)N2Cc1ccccc1)c1ccc2ccccc2c1 (single isomer, unassigned) | – | 2.5 | – | -1.5 | 81 | 2.6 | – | 82.4 | 2.6 | – | 100 | – | – | 0.2 | 304 | -0.5 | 0.1 | -0.9 | -0.6 | – | deltaT (Mus musculus [42]): -0.9 °C; deltaT (Mus musculus [43]): -1.3 °C; Activity (Mus musculus [44]): 321; Activity (Mus musculus [45]): 15; deltaT (Mus musculus [46]): 0 °C; deltaT (Mus musculus [47]): -0.2 °C; Activity (Mus musculus [48]): inactive; Activity (Mus musculus [27]): 95%; deltaT (Mus musculus [49]): 0.1 °C; Activity (Rattus norvegicus [50]): 0.1; Activity (Rattus norvegicus [51]): 2.7; Activity (Mus musculus [52]): inactive; deltaT (Mus musculus [53]): -0.1 °C
